Results published in PubChem BioAssay (NCI).
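Cultured in 96-well plates, cells were exposed to test compound for 48 hours across five concentrations. Abbreviation: GI50, concentration required for 50% inhibition of growth. TGI: concentration producing complete growth inhibition.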

Key:
Assay in all cases: NCI-60 cell line screen, 48 h
[1] = system: HS 578T breast
[2] = system: A498 renal
[3] = system: BT-549 breast
[4] = system: PC-3 prostate
[5] = system: SK-OV-3 ovarian
[6] = system: HCT-15 colon
[7] = system: LOX IMVI melanoma
[8] = system: 786-0 renal
[9] = system: UO-31 renal
[10] = system: HOP-62 NSCLC

Row | SMILES | GI50 [1] | TGI [1] | GI50 [2] | TGI [2] | GI50 [3] | TGI [3] | GI50 [4] | TGI [4] | GI50 [5] | TGI [5] | GI50 [6] | TGI [6] | GI50 [7] | TGI [7] | GI50 [8] | TGI [8] | GI50 [9] | TGI [9] | GI50 [10] | TGI [10]
1 | COc1cc(C2CC(c3ccc(Nc4ccnc5cc(Cl)ccc45)cc3)=NN2C=O)cc(OC)c1OC (stereo not given) | 3.24 µM | 27.7 µM | 15.3 µM | 49.5 µM | 1.92 µM | 3.97 µM | 11.7 µM | > 100 µM | 3.36 µM | 10.9 µM | 3.56 µM | > 100 µM | 1.89 µM | 3.85 µM | 2.31 µM | 4.8 µM | 4.96 µM | 21.3 µM | 4.13 µM | 20.8 µM
2 | CC(C)(C)c1cn2cccc(C(=O)N3CCN(CC(=O)Nc4ccc(Cl)cc4C(=O)c4ccccc4Cl)CC3)c2n1 | 4.72 µM | 19.9 µM | 3.48 µM | 9.38 µM | 3.8 µM | 19.7 µM | 2.35 µM | 6.88 µM | 27.5 µM | > 100 µM | 4.81 µM | 32 µM | 11 µM | 23.9 µM | 24.4 µM | 85.2 µM | 22.4 µM | 74.7 µM | 15.4 µM | 32.3 µM
3 | COc1ccc(/C(=N\O)c2cc(OC)c(OC)c(OC)c2)c(OC)c1N | 5.51 µM | > 100 µM | 3.75 µM | > 100 µM | 3.86 µM | > 100 µM | 4 µM | > 100 µM | 3.82 µM | > 100 µM | 2.64 µM | > 100 µM | 5.38 µM | > 100 µM | 6.77 µM | > 100 µM | 8.14 µM | > 100 µM | 4.26 µM | > 100 µM
4 | CC(C)=CC(O)C/C(C)=C/CC/C(C)=C/CCC1(C)C(CCCO)/C(=C(/C)C=O)CCC1(C)O (stereo not given) |  | > 100 µM |  | > 100 µM |  | > 100 µM |  | > 100 µM |  | > 100 µM |  | > 100 µM |  | > 100 µM |  | > 100 µM |  | > 100 µM |  | 88.6 µM
5 | O=C(Nc1cccnc1)c1cccc([N+](=O)[O-])c1 | > 100 µM | > 100 µM | > 100 µM | > 100 µM | > 100 µM | > 100 µM | > 100 µM | > 100 µM | > 100 µM | > 100 µM | > 100 µM | > 100 µM | > 100 µM | > 100 µM | > 100 µM | > 100 µM | > 100 µM | > 100 µM | > 100 µM | > 100 µM
